# Results reported in patent publication US6982157B1, “Drug combinations comprising (E)-7-[4-(4-fluorophenyl)-6-isopropyl-2-[methylsulfonyl)amino] pyrimidin-5-yl] (3r,5s) -3,5-dihydroxyhept-6-enoic acid and an inhibitor, inducer or substrate of p450 isoenzyme 3A4” (AstraZeneca AB, priority 1999, dated 2006).
# How the values were obtained:
# [1] = system: mixed hyperlipidaemia and hypertriglyceridaemia in patients; test: Clinical study of the Agent dosed with a fibrate drug; format: in vivo, human
# [2] = system: hypercholesterolaemia in patients following transplantation; test: Clinical study of the Agent in post-transplant patients on immunosuppressive therapy; format: in vivo, human
# Procedure: Trial Design This is a multicenter, randomized, double-blind, parallel-group clinical trial. […] Patients who have had their dose titrated up to 40 mg may have their dose titrated back down to 20 mg at the investigator's discretion.
# [3] = system: human hepatocytes; test: Metabolism of [14C]-labelled Agent by human hepatocytes; format: in vitro ADME; details: human hepatocytes in culture, 0-48 hours
# Procedure: Cultures were terminated with ethanol after 0, 6, 24 and 48 hours of incubation and stored at approximately −20° C. until analysed. The metabolic competence of the hepatocytes was confirmed at the time of incubation by examining their ability to metabolise [^14C]-ethoxycoumarin (25 μM); aliquots were removed into methanol at the same time points as for the test compound.
# Following incubation of [^14C]-ZD4522 with hepatocytes, metabolite profiles were generated by High Performance Liquid Chromatography (HPLC). The ability of hepatocytes to metabolise [^14C]-ethoxycoumarin was confirmed by HPLC.
# [4] = system: heart transplant patients; details: cited from earlier work
# [5] = system: patients; details: cited from earlier work
# [6] = system: cytochrome P450 enzymes, in particular 3A4; details: cited from earlier work
# [7] = patients undertaking immunosuppressive therapy
smiles,measurement,setting,value
"CC(C)c1nc(N(C)S(C)(=O)=O)nc(-c2ccc(F)cc2)c1/C=C/[C@@H](O)C[C@@H](O)CC(=O)O [Agent, (E)-7-[4-(4-fluorophenyl)-6-isopropyl-2-[methyl(methylsulfonyl)amino]pyrimidin-5-yl](3R,5S)-3,5-dihydroxyhept-6-enoic acid]",treating mixed hyperlipidaemia and hypertriglyceridaemia when combined with a fibrate drug,[1]; combined with a fibrate drug,extremely effective
same,side effects of concomitant dosing of the Agent and the fibrate drug,[1]; patients also taking a fibrate drug,without any clinically significant side effects
same,treating hypercholesterolaemia in patients following transplantation,[2]; patients following transplantation,extremely effective
same,"level of cholesterol lowering compared with what was previously achieved, such as by pravastatin",[2]; [7],much higher levels of cholesterol lowering
same,side effects of concomitant dosing of the Agent and immunosuppressive drug(s),[2]; [7],without any clinically significant side effects
same,metabolism of the Agent by whole hepatocytes,[3],not significantly metabolised
"CC[C@H](C)C(=O)O[C@H]1C[C@@H](C)C=C2C=C[C@H](C)[C@H](CC[C@@H]3C[C@@H](O)CC(=O)O3)[C@H]21 [Lovastatin, lovastatin]",cholesterol levels in heart transplant patients,[4],lower cholesterol levels
CC(C)c1c(C(=O)Nc2ccccc2)c(-c2ccccc2)c(-c2ccc(F)cc2)n1CC[C@@H](O)C[C@@H](O)CC(=O)O [atorvastatin],patients with clinically important (>3 times ULN) elevations in serum ALT,"[5]; low doses of atorvastatin, European SmPC",0.8%
Cc1ccc(C)c(OCCCC(C)(C)C(=O)O)c1 [gemfibrozil],patients with myositis-flu like syndrome,[5]; gemfibrozil when a statin is also administered,5%
CC[C@H](C)C(=O)O[C@H]1C[C@H](O)C=C2C=C[C@H](C)[C@H](CC[C@@H](O)C[C@@H](O)CC(=O)O)[C@H]21 [pravastatin],rate of metabolism by P450,[6],sufficiently low
